molecular target: Serine/threonine-protein kinase/endoribonuclease IRE1 (Homo sapiens, UniProt O75460); assay: Inhibition Assay: A fusion protein comprising glutathione S transferase (GST) and human IRE-1alpha (GST-IRE-1alpha) obtained from a 500 ml baculovirus-infected insect cell culture can be used to measure IRE-1alpha activity in vitro. Five ul of a reaction mixture comprising IX reaction buffer (5x reaction buffer is 100 mM Hepes pH 7.5, 250 mM KOAc, 2.5 mM MgCl2), 3 mM DTT, and 0.4% polyethylene glycol water is added to each well of 384 well plates. Twenty-five nanoliters of a 1 mM test compound solution are added to test wells. Three ul of a 128 ng/ml IRE-1alpha preparation are added to each test well and to positive control wells (final concentration 5.82 ng/well). Negative control wells contain only reaction mixture and test compound.After spinning the plates at 1200 rpm for 30 seconds, 3 ul of an IRE-1alpha human mini-XBP-1 mRNA stem-loop substrate 5'-[…]-3' (SEQ ID NO:1), labeled with the fluorescent dye Cy5 at the 5' end and Black Hole Quencher 2.
Sequence (O75460 whole entry, the tested form may be a part): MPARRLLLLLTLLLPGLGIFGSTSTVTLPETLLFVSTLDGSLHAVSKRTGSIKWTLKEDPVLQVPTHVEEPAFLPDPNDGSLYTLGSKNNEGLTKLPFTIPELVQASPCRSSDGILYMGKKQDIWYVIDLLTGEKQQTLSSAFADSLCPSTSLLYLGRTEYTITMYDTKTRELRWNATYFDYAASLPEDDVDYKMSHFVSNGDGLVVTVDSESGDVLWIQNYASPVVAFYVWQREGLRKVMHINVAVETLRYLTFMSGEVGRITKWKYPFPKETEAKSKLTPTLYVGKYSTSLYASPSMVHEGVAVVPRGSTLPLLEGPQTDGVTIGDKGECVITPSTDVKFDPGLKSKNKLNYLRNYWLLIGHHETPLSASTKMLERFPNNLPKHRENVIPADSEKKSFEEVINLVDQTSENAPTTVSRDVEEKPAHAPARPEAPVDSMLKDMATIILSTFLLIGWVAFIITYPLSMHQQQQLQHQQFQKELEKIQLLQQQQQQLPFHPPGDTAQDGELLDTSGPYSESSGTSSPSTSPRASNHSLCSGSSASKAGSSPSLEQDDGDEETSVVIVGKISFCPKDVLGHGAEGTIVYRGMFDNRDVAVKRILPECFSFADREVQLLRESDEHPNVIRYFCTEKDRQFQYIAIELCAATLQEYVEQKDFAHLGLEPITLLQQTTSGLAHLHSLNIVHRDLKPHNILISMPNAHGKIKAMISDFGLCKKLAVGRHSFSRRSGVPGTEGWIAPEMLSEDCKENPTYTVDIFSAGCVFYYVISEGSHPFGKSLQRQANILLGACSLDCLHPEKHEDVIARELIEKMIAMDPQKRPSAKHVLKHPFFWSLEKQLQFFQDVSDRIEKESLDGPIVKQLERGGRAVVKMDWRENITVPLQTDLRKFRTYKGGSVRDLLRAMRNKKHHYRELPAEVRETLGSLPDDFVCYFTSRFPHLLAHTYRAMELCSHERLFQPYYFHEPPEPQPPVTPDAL

SMILES	IC50 [nM]
Cc1c(Br)c(=O)oc2c(C=O)c(O)ccc12	< 100
O=Cc1c(O)ccc2cc(-c3ccc(Br)cc3)c(=O)oc12	< 100
Cc1c(-c2ccc(C(=O)N3CCN(C)CC3)cc2)c(=O)oc2c(C=O)c(O)ccc12	< 100
CCN(CC)CCc1c(C)c2ccc(O)c(C=O)c2oc1=O	< 100
COc1cc2c(C)c(Br)c(=O)oc2c(C=O)c1O	< 100
Cc1c(Br)c(=O)oc2c(C=O)c(O)c(F)cc12	< 1000
Cc1c(-c2cccc(C(=O)N3CCOCC3)c2)c(=O)oc2c(C=O)c(O)ccc12	< 100
Cc1c(Cc2ccccc2)c(=O)oc2c(C=O)c(O)c(O)cc12	< 100
Cc1c(-c2ccc(C(=O)N3CCCC3)cc2)c(=O)oc2c(C=O)c(O)ccc12	< 1000
Cc1c(-c2ccc(C(=O)N3CCC(C)CC3)cc2)c(=O)oc2c(C=O)c(O)ccc12	< 1000
Cc1c(-c2cccc(C(=O)N3CCCC3)c2)c(=O)oc2c(C=O)c(O)ccc12	< 100
Cc1cc(=O)oc2c(C=O)c(O)c(F)cc12	< 1000
COc1cc2c(C)c(-c3ccc(C(=O)N4CCOCC4)cc3)c(=O)oc2c(C=O)c1O	< 1000
CN1CCN(CCC(=O)N2CCc3c(ccc(O)c3C=O)C2)CC1	> 10000
Cc1nc(N2CCc3c(ccc(O)c3C=O)C2)sc1C(=O)N1CCOCC1	< 10000
O=Cc1c(O)ccc2nc(-c3cccc(C(=O)N4CCOCC4)c3)ccc12	< 1000
CC1CCN(C(=O)c2ccc(-c3ccc4c(C=O)c(O)ccc4n3)cc2)CC1	< 100
O=Cc1c(O)ccc2nc(-c3ccc(C(=O)N4CCCC4)cc3)ccc12	< 100
O=Cc1c(O)ccc2nc(N3CCC(NC(=O)CN4CCOCC4)C3)ccc12 (stereo not given)	< 100
CC(=O)NC1CCN(c2ccc3c(C=O)c(O)ccc3n2)C1 (stereo not given)	< 100
CN1CCN(C2CCN(c3nc4ccc(O)c(C=O)c4s3)C2)CC1 (stereo not given)	< 100
CC(C)N1CCN(c2nc3ccc(O)c(C=O)c3s2)CC1	< 100
CN1CCN(C(=O)c2ccc(-c3nc4ccc(O)c(C=O)c4s3)s2)CC1	< 100
CC1CCN(C(=O)c2ccc(-c3nc4ccc(O)c(C=O)c4s3)cc2)CC1	< 100
O=Cc1c(O)ccc2nc(-c3ccc(C(=O)O)cc3)[nH]c12	< 1000
COC(=O)c1ccc(-c2nc3ccc(O)c(C=O)c3[nH]2)cc1	< 1000
O=Cc1c(O)ccc2nc(-c3ccc(C(=O)NCCN4CCOCC4)cc3)[nH]c12	< 100
O=Cc1c(O)ccc2nc(-c3ccc(C(=O)N4CCOCC4)cc3)[nH]c12	< 100
CN1CCN(C(=O)c2ccc(-c3nc4ccc(O)c(C=O)c4[nH]3)cc2)CC1	< 100
Cc1c(CCC(=O)N2CCOCC2)c(=O)oc2c(C=O)c(O)ccc12	< 100
